Drawing on ChEMBL document CHEMBL1141643, “Synthesis and SAR of novel 1,1-dialkyl-2(1H)-naphthalenones as potent HCV polymerase inhibitors” (Bioorg Med Chem Lett, 2008), this text covers IC50 and EC50 for nine compounds.

A short description of test [1]: Inhibition of HCV 1a RNA dependent RNA polymerase. Set-up: species or system Hepacivirus hominis.
Another test has as its system Hepatitis C virus. Briefly: Inhibition of HCV 1a replication by cell based assay. Format: functional, organism-based, Hepacivirus hominis.

In the case of `CCC1(CCC(C)C)C(=O)C(C2=NS(=O)(=O)c3cc(NS(C)(=O)=O)ccc3N2)=C(O)c2ccccc21` (stereo not given), half-maximal inhibition in test [1] (IC50) was put at 17 nM. Further, in the test with Hepatitis C virus, the EC50 – broadly, the concentration that produces a half-maximal response – amounted to 49 nM.
The like results for `CC(C)CCC1(C)C(=O)C(C2=NS(=O)(=O)c3cc(NS(C)(=O)=O)ccc3N2)=C(O)c2ccccc21` (stereo not given) were, in that order, 7 nM and 38 nM.
With `CC1(CCCC2CCCCC2)C(=O)C(C2=NS(=O)(=O)c3cc(NS(C)(=O)=O)ccc3N2)=C(O)c2ccccc21` (stereo not given), the IC50 – broadly, the point on the concentration scale where inhibition reaches its midpoint – in test [1] was 791 nM.
As for `CCCCC1(C)C(=O)C(C2=NS(=O)(=O)c3cc(NS(C)(=O)=O)ccc3N2)=C(O)c2ccccc21` (stereo not given), in test [1], the IC50 was found to be 15 nM. Moreover, the EC50 in the test on Hepatitis C virus is 52 nM.
With `CCCC1(C)C(=O)C(C2=NS(=O)(=O)c3cc(NS(C)(=O)=O)ccc3N2)=C(O)c2ccccc21` (stereo not given), in test [1], 20 nM corresponded to half-maximal inhibition (IC50).
The compound `CC(C)(C)CCC1(C)C(=O)C(C2=NS(=O)(=O)c3cc(NS(C)(=O)=O)ccc3N2)=C(O)c2ccccc21` (stereo not given) yielded an IC50 in test [1] of 10 nM. In the test with Hepatitis C virus, this compound yielded an EC50 of 8 nM.
Compound `CC(C)(C)CCCCC1(C)C(=O)C(C2=NS(=O)(=O)c3cc(NS(C)(=O)=O)ccc3N2)=C(O)c2ccccc21` (stereo not given) had an IC50 in test [1] of 138 nM.
Take `CC1(CC2CCCCC2)C(=O)C(C2=NS(=O)(=O)c3cc(NS(C)(=O)=O)ccc3N2)=C(O)c2ccccc21` (stereo not given): in test [1], half-maximal inhibition (IC50) was put at 13 nM. In the test on Hepatitis C virus, this compound registered an EC50 of 121 nM.
Turning to `CCCC1(CCC)C(=O)C(C2=NS(=O)(=O)c3cc(NS(C)(=O)=O)ccc3N2)=C(O)c2ccccc21`, in test [1], it took 99 nM to reach half-maximal inhibition (IC50). In the test on Hepatitis C virus, this compound registered an EC50 of 603 nM.
